# Experimental data published in US8653110B2, “Active compound combination comprising azadirachtin and a substituted enaminocarbonyl compound” (Bayer CropScience AG, priority 2010, dated 2014).
# System: Cyclocephala immaculata
# Assay: Watering test with beetle larvae (Example 2)
# Type: in vivo
# Conditions: L3 larvae, watering, (I-1) 600, azadirachtin 60, (I-1)+azadirachtin 600+60, trichlorfon 4529 g of active compound/ha
# Excerpt: Beetle larvae (grubs) are important lawn pests. On the one hand, they feed on grass roots, damaging them directly, on the other hand they are a favoured food for birds which, searching for grubs, destroy the turf. For treatment against grubs, infested lawns are usually watered with insecticidal compositions. This type of treatment is emulated in the laboratory by Example 2.
# To prepare a suitable active compound preparation, a commercial formulation of active compound or active compound combination is mixed with water until the desired concentration is reached. Pots with soil substrate were watered with the following active compound preparations: • 1. untreated • 2. compound (I-1) as SL 200, 600 g of active compound/ha • 3. azadirachtin, 60 g of active compound/ha • 4. compound (I-1) as SL 200+azadirachtin, 600+60 g of active compound/ha • 5. positive control: trichlorfon 4529 g of active compound/ha
# L3 larvae of Cyclocephala immaculata were placed onto the pots. After 1, 4, 7, 14 days, the survival rate was determined, and this was used to calculate the efficacy of the compositions. 100% means that all grubs were killed, 0% means no activity.
smiles,measurement,setting,value
COP(=O)(OC)C(O)C(Cl)(Cl)Cl (stereo not shown) [trichlorfon],Effect on day 1 in %,day 1,0%
same,Effect on day 4 in %,day 4,17%
same,Effect on day 7 in %,day 7,29%
same,Effect on day 14 in %,day 14,50%
